From ChEMBL document CHEMBL1821713, “Synthesis and in vitro activity of novel 1,2,4-triazolo[4,3-a]pyrimidine oxazolidinone antibacterial agents. Part II” (Bioorg Med Chem Lett, 2011) come the findings set out here.

Series [1] relates to Enterococcus faecalis. Kind of series: Antibacterial activity against Enterococcus faecalis ATCC 29212 by CLSI method. The format is functional.
For series [2], the system named is Staphylococcus aureus. The series can be described thus: Antibacterial activity against methicillin-resistant Staphylococcus aureus 43300 by CLSI method. Type of series: functional.
For series [3], the system named is Staphylococcus aureus. The series can be described thus: Antibacterial activity against Staphylococcus aureus ATCC 25923 by CLSI method. Type of series: functional.
Series [4] relates to Staphylococcus epidermidis. Kind of series: Antibacterial activity against Staphylococcus epidermidis ATCC 12228 by CLSI method. Type of series: functional.
Series [5] has as its system Staphylococcus aureus. Kind of series: Antibacterial activity against Staphylococcus aureus ATCC 29213 by CLSI method relative to Linezolid. The format is functional.
The test system of series [6] is Staphylococcus aureus. The series can be described thus: Antibacterial activity against Staphylococcus aureus FDA 209P by CLSI method relative to Linezolid. Type of series: functional.
For series [7], the system named is Staphylococcus aureus. The series can be described thus: Antibacterial activity against Staphylococcus aureus ATCC 49775 PVL positive by CLSI method relative to Linezolid. The format is functional.
For series [8], the system named is Staphylococcus aureus. The series can be described thus: Antibacterial activity against Staphylococcus aureus ATCC 700699 Mu 50 by CLSI method relative to Linezolid. The format is functional.
Series [9] concerns Staphylococcus aureus. The series can be described thus: Antibacterial activity against Staphylococcus aureus ATCC 13709 Smith by CLSI method relative to Linezolid. The format is functional.
For series [10], the system named is Staphylococcus epidermidis. Kind of series: Antibacterial activity against Staphylococcus epidermidis ATCC 14990 by CLSI method relative to Linezolid. Type of series: functional.
The test system of series [11] is Staphylococcus epidermidis. The series can be described thus: Antibacterial activity against Staphylococcus epidermidis ATCC 12228 by CLSI method relative to Linezolid. The format is functional.
For series [12], the system named is Enterococcus faecium. The series can be described thus: Antibacterial activity against Enterococcus faecium 06076VRE by CLSI method relative to Linezolid. The format is functional.
Series [13] concerns Streptococcus pneumoniae. The series can be described thus: Antibacterial activity against Streptococcus pneumoniae ATCC 49619 by CLSI method relative to Linezolid. The format is functional.
Series [14] has as its system Streptococcus pyogenes. Kind of series: Antibacterial activity against Streptococcus pyogenes ATCC 19615 by CLSI method relative to Linezolid. The format is functional.
In series [15] the target is T1, CYP1A2 (Homo sapiens, UniProt P05177).
T1 sequence (P05177 whole entry): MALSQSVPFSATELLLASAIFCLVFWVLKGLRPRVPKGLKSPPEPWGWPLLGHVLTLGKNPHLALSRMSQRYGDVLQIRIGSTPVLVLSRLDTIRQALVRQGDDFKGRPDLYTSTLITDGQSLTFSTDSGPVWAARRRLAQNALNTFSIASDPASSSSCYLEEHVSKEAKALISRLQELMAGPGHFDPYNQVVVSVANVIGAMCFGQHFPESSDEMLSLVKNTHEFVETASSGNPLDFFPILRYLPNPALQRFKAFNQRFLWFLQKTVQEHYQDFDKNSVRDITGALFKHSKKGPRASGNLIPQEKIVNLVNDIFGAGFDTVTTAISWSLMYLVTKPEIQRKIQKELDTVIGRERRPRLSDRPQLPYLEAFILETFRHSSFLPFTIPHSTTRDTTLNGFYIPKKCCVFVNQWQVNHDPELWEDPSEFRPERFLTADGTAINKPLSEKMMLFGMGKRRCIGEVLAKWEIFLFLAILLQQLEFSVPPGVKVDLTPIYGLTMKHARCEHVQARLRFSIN
The series can be described thus: Inhibition of human recombinant CYP1A2 at 10 uM by fluorimetric analysis. The format is ADME.

In series [16] the target is CYP2C9 (Homo sapiens, UniProt P11712). The series can be described thus: Inhibition of recombinant human cytochrome P450-2C9 at 10 uM by fluorimetric analysis. Type of series: ADME.
For series [17], the target named is CYP2C19 (Homo sapiens, UniProt P33261). The series can be described thus: Inhibition of human recombinant CYP2C19 at 10 uM by fluorimetric analysis. Type of series: ADME.
The target in series [18] is CYP2D6 (Homo sapiens, UniProt P10635). Kind of series: Inhibition of human recombinant CYP2D6 at 10 uM by fluorimetric analysis. Type of series: ADME.
Series [19] deals with CYP3A4 (Homo sapiens, UniProt P08684). The series can be described thus: Inhibition of human recombinant CYP3A4 at 10 uM by fluorimetric analysis. Type of series: ADME.

In brackets after ≈: the same amount, converted by molar mass.

Chain of CYP2C19 (P33261 whole entry): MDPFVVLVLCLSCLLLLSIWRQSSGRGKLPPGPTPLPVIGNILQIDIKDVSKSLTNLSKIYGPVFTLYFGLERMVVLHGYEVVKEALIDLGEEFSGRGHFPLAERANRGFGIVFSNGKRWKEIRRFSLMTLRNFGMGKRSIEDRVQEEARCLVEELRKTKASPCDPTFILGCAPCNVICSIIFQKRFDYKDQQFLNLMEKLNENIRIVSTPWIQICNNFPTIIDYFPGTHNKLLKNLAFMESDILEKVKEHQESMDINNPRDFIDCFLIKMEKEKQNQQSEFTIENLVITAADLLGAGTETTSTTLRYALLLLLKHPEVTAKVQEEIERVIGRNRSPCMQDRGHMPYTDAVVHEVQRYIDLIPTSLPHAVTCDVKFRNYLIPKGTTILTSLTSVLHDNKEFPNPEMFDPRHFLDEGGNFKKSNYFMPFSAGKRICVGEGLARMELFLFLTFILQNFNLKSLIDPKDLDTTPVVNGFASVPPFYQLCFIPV
Chain of CYP2C9 (P11712 whole entry): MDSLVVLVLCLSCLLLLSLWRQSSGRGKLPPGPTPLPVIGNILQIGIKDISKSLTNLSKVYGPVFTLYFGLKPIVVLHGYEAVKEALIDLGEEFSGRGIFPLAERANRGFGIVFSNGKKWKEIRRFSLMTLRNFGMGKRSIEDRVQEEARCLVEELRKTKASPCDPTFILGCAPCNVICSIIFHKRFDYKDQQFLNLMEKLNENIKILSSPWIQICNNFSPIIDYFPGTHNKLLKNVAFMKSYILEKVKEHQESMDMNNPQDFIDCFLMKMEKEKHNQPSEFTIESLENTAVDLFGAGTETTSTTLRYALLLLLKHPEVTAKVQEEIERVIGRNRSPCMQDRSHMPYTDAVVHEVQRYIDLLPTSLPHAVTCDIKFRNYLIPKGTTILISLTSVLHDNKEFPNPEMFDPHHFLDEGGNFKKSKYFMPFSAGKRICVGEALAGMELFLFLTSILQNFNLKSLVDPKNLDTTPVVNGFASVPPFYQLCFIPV
Chain of CYP2D6 (P10635 whole entry): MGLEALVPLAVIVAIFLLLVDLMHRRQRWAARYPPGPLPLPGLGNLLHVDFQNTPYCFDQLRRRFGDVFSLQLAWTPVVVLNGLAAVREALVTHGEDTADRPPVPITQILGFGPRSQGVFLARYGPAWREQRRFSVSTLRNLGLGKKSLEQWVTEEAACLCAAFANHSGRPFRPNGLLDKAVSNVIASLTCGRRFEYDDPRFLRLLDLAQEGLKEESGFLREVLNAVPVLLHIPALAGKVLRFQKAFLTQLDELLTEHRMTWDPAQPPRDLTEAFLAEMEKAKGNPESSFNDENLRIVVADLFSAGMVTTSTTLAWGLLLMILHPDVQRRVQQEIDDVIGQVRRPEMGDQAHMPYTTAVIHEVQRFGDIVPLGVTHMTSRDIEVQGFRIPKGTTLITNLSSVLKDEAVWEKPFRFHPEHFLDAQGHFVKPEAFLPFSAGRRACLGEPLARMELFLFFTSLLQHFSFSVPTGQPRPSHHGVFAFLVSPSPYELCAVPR
Chain of CYP3A4 (P08684 whole entry): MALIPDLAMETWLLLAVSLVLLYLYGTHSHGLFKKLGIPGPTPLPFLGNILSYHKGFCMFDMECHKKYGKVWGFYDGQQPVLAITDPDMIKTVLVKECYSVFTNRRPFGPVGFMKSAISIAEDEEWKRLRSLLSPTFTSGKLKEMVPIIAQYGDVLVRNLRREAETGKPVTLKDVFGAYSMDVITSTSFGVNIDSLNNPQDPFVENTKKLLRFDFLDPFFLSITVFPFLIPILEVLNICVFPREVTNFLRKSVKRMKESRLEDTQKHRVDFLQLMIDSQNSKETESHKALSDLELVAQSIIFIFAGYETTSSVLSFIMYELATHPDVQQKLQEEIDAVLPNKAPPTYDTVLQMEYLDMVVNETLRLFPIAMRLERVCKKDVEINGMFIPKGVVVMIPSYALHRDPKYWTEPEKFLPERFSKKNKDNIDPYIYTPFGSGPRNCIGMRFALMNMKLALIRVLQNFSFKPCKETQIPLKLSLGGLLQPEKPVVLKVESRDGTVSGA

As a reminder, the MIC is the lowest concentration found to suppress growth. High values mean a less susceptible organism, low ones a more susceptible organism. As for `CC(=O)NC[C@H]1CN(c2ccc(-c3ccc(-c4nnc5ncccn45)nc3)c(F)c2)C(=O)O1`, the MIC was 0.5 µg/mL (≈ 1.12 µM) in series [1], 0.125 µg/mL (≈ 0.279 µM) in series [2], 0.25 µg/mL (≈ 0.559 µM) in [3] and 0.5 µg/mL (≈ 1.12 µM) in series [4].

Regarding `CC(=O)NC[C@H]1CN(c2ccc(-c3ccc(-c4nnc5ncccn45)c(F)c3)c(F)c2)C(=O)O1`, the MIC turned out to be 0.5 µg/mL (≈ 1.08 µM) in series [1], 0.125 µg/mL (≈ 0.269 µM) in series [2], 0.5 µg/mL (≈ 1.08 µM) in series [3] and 0.5 µg/mL (≈ 1.08 µM) in series [4].

In the case of `COc1ccc(-c2ccc(N3C[C@H](CNC(C)=O)OC3=O)cc2F)cc1-c1nnc2ncccn12`, the MIC in series [1] is 16 µg/mL (≈ 33.6 µM); in series [2], 8 µg/mL (≈ 16.8 µM); in [3], 16 µg/mL (≈ 33.6 µM); in series [4] it was more than 16 µg/mL.

`CC(=O)NC[C@H]1CN(c2ccc(N3CCOCC3)c(F)c2)C(=O)O1` [LINEZOLID] gave a minimal inhibitory concentration (MIC) in series [4] of 1 µg/mL (≈ 2.96 µM).

As for `CC(=O)NC[C@H]1CN(c2cccc(F)c2)C(=O)O1`, the MIC is more than 16 µg/mL in series [1], 16 µg/mL (≈ 63.4 µM) in series [2], more than 16 µg/mL in [3] and 16 µg/mL (≈ 63.4 µM) in series [4].

Broadly, the inhibition is the percentage by which the read-out fell short of the control. Consider `CC(=O)NC[C@H]1CN(c2ccc(-c3csc(-c4nnc5ncccn45)c3)c(F)c2)C(=O)O1`, for which the MIC came out at 0.06 µg/mL (≈ 0.133 µM) in series [1], 0.125 µg/mL (≈ 0.276 µM) in [2], 0.125 µg/mL (≈ 0.276 µM) in series [3] and 0.25 µg/mL (≈ 0.553 µM) in series [4]. In addition, the “fold change (FC)” value in series [5], in series [6], in [7], in series [8], in series [9] and in [10] was 4 in each case. For the same molecule, the “fold change (FC)” value in series [11], in series [12], in series [13] and in [14] was 4 each time. For the same molecule, the inhibition at 10 µM amounted to 4.3% in series [15]; 40.9% in series [16]; 36.2% in series [17]; 5.6% in series [18]; 37.7% in series [19].

Turning to `CC(=O)NC[C@H]1CN(c2ccc(-c3cccc(-c4nnc5ncccn45)c3)c(F)c2)C(=O)O1`, the MIC in series [1] is 4 µg/mL (≈ 8.96 µM); in series [2], 1 µg/mL (≈ 2.24 µM); in series [3] it was 4 µg/mL (≈ 8.96 µM); in [4], 4 µg/mL (≈ 8.96 µM).
